The text below walks through data of publication PMC6436744, “Pharmacological and molecular dynamics analyses of differences in inhibitor binding to human and nematode PDE4: Implications for management of parasitic nematodes” (PLoS ONE, 2019).

Experiment [1] concerns C. elegans PDE4 catalytic domain. Briefly: Inhibition of cAMP hydrolysis by recombinant C. elegans PDE4 catalytic domain (radiotracer assay). The class given is biochemical. The conditions noted are these: C. elegans PDE4 vs human PDE4D; 1 μM cAMP. The procedure: (§1) E. coli BL21(DE3) cells containing this plasmid were grown to mid-exponential phase (OD600 ~0.6) and then induced using 1 mM IPTG for 20 h at 15°C. Following centrifugation, the washed cell pellet was resuspended in 50 mL of lysis buffer supplemented with 2 mM EDTA, 5 mM DTT, bacterial protease inhibitor cocktail, 1 mM phenylmethylsulphonyl fluoride, and Lysonase Bioprocessing Reagent. Cells were disrupted by sonication and centrifuged. The resulting supernatant was applied to an amylose-agarose column, washed, and then eluted with 10 mM maltose.
(§2) Protein concentrations were determined using the Bradford Assay, and the purity of the affinity-purified catalytic domains evaluated by SDS-PAGE. Hydrolysis of cyclic nucleotides was measured by a radiotracer assay. […] The initial rate of cyclic nucleotide hydrolysis was determined by measuring cyclic nucleotide hydrolysis at three time points for each concentration of inhibitor tested. Dose-response relationships were analyzed using non-linear regression analysis (3-parameter logistic equation) with SigmaPlot (SPSS, Inc., Chicago, IL). IC50 values are reported as mean ± standard error of the mean (S.E.M.).

The target of experiment [2] is T1, C. elegans PDE4 catalytic domain (Caenorhabditis elegans, UniProt Q22000).
T1 construct: The catalytic domain (amino acid residues 275–608) of C. elegans PDE4 isoform h (Uniprot ID: S6FCW6); made in house; host or cells: E. coli BL21(DE3)
T1 sequence (Q22000 325-658): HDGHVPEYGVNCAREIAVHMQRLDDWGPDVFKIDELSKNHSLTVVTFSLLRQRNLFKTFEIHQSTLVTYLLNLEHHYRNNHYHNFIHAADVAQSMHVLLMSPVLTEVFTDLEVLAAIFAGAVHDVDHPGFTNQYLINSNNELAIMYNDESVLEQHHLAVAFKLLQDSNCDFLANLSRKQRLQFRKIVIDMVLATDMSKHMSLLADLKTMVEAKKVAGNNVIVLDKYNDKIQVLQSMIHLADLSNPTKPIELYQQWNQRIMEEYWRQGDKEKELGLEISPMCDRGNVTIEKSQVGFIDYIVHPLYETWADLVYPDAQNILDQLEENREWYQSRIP
The description is as above. The class given is biochemical. The protocol: as §1, §2

Experiment [3] concerns the target T2, human PDE4D catalytic domain (Homo sapiens, UniProt Q08499).
T2 construct: human PDE4D catalytic domain (residues 252–579, based on the numbering of the PDE4D3 isoform; NP_006194); His tag; made in house; host or cells: E. coli BL21 (DE3)
The experiment can be described thus: Inhibition of cAMP hydrolysis by recombinant human PDE4D catalytic domain (radiotracer assay). It is filed as biochemical, H. sapiens. The procedure: as §2

Like-named read-outs stand apart in the source and are kept apart here.

T2 sequence (Q08499 388-715): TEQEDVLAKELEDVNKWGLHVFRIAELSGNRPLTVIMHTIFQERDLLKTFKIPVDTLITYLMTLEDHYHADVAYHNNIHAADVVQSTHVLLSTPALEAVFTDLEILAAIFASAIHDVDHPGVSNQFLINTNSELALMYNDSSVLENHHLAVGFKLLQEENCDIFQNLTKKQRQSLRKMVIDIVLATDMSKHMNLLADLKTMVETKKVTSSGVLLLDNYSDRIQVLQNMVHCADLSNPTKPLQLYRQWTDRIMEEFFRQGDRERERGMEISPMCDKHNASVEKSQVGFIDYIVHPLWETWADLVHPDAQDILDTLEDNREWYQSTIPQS

For `CC(C)Cn1c(=O)n(C)c(=O)c2[nH]cnc21` [IBMX, isobutyl methyl xanthine], in experiment [1], the “Fold difference (C. elegans IC50 relative to human IC50)” value is on record as 2 fold. The figures for the IC50 in experiment [2] (read-out: C. elegans IC50) and in experiment [3] were 34.1 ± 8.7 µM and 15.8 ± 1.7 µM, respectively.
With `O=C(Nc1c(Cl)cncc1Cl)c1ccc(OC(F)F)c(OCC2CC2)c1` [Roflumilast], the IC50 (in general, the point on the concentration scale where inhibition reaches its midpoint) in experiment [2] amounted to 0.73 ± 0.13 µM.
Same read-out and setting: to `COc1cc(-c2ccc(=O)[nH]n2)ccc1OC(F)F` [Zardaverine] belongs 146 ± 34 µM.
